Source: paper PMC7686313, “Phase 1 study of mTORC1/2 inhibitor sapanisertib (TAK-228) in advanced solid tumours, with an expansion phase in renal, endometrial or bladder cancer” (British Journal of Cancer, 2020)
Read-outs that look alike come from different tables or passages of the source.

Assays:
[1] = Plasma pharmacokinetics (LC-MS/MS); assay type: in vivo, human; settings: human, plasma, oral
Procedure: Peripheral blood was collected serially to quantify plasma levels of sapanisertib for PK analysis via validated liquid chromatography tandem mass spectrometry with an assay range of 1–1000 ng/mL (MicroConstants, San Diego, CA), during both dose-escalation and expansion phases. Blood samples were collected before each dose and 0.5, 1, 2, 4, 8 and 24 h after dosing on cycle 1, day 1 and cycle 2, day 1, in the dose-escalation phase. In the expansion phase, samples were collected predose and 2, 4 and 6 h postdose on cycle 1, day 1, and then predose and 2 h postdose on day 8, 15 or 22 of cycle 1.

[2] = test system: p4EBP1, pS6, pPRAS40 and pNDRG1 (TORC1/2 biomarkers); experiment: Pharmacodynamics in skin biopsies (IHC); assay type: in vivo, human; settings: doses of ≥4 mg; baseline vs days 8–15 (3 h postdose) of cycle 1
Procedure: The tissue PK and PD of sapanisertib were investigated in skin and tumour biopsies. During dose escalation, 3-mm core skin biopsies were collected predose and on any day from 8–15 (3 h postdose) of cycle 1 for immunohistochemistry (IHC) assessment of mTORC1 downstream effects (p4EBP1, pS6) and pNDRG1 (Mosaic Laboratories, Lake Forest, CA). […] Archival tumour tissues for assessment of prognostic markers were collected at baseline.
During dose-escalation, the PD effect of sapanisertib on downstream effectors of TORC1 (p4EBP1 and pS6) and TORC2 (pPRAS40 and pNDRG1) was measured in skin-tissue biopsies from 88 patients collected at baseline and days 8–15 (3 h postdose) of cycle 1. […] PD data in tumour tissue were limited due to the small number of samples. For the five patients with paired tumour samples available for review (biopsies at baseline and cycle 1, week 2), the levels of p4EBP1, pS6, pPRAS40 and pNDRG1 decreased after sapanisertib treatment (Supplementary Fig. 4).

CC(C)n1nc(-c2ccc3oc(N)nc3c2)c2c(N)ncnc21 [Sapanisertib]
AUC(0-t) ([1]; 7 mg, cycle 2, day 1, QW 7 mg, read-out: AUC0–24h [%CV]): 0.351 µg·h/mL | half-life ([1]; 7 mg, cycle 2, day 1, QW 7 mg, read-out: t½ (converted)): 5.6 h | Cmax ([1]; 9 mg, cycle 1, day 1, 9 mg): 0.0759 µg/mL | AUC(0-t) ([1]; 9 mg, cycle 1, day 1, 9 mg, read-out: AUC0–24h [%CV]): 0.596 µg·h/mL | half-life ([1]; 9 mg, cycle 1, day 1, 9 mg, read-out: t½ (converted)): 7.5 h | Cmax ([1]; 9 mg, cycle 2, day 1, QDx3dQW 9 mg): 0.0831 µg/mL | AUC(0-t) ([1]; 9 mg, cycle 2, day 1, QDx3dQW 9 mg, read-out: AUC0–24h [%CV]): 0.707 µg·h/mL | Tmax ([1]; 9 mg, cycle 2, day 1, QDx3dQW 9 mg, read-out: Tmax, median): 2.1 h | half-life ([1]; 9 mg, cycle 2, day 1, QDx3dQW 9 mg, read-out: t½ (converted)): 6.9 h | Cmax ([1]; 10 mg, cycle 1, day 1, 10 mg): 0.0484 µg/mL | AUC(0-t) ([1]; 10 mg, cycle 1, day 1, 10 mg, read-out: AUC0–24h [%CV]): 0.342 µg·h/mL | AUC(0-t) ([1]; 10 mg, cycle 1, day 1, 10 mg, read-out: AUC0–last [%CV]): 0.153 µg·h/mL | Tmax ([1]; 10 mg, cycle 1, day 1, 10 mg, read-out: Tmax, median): 2.8 h | half-life ([1]; 10 mg, cycle 1, day 1, 10 mg, read-out: t½ (converted)): 6.4 h | Cmax ([1]; 10 mg, cycle 2, day 1, QDx5dQW 10 mg): 0.057 µg/mL | AUC(0-t) ([1]; 10 mg, cycle 2, day 1, QDx5dQW 10 mg, read-out: AUC0–24h [%CV]): 0.366 µg·h/mL | half-life ([1]; 10 mg, cycle 2, day 1, QDx5dQW 10 mg, read-out: t½ (converted)): 5.7 h | Tmax ([1]; 10 mg, cycle 2, day 1, QW 10 mg, read-out: Tmax, median): 2.9 h | Cmax ([1]; 12 mg, cycle 1, day 1, 12 mg): 0.0995 µg/mL | AUC(0-t) ([1]; 12 mg, cycle 1, day 1, 12 mg, read-out: AUC0–24h [%CV]): 0.73 µg·h/mL | half-life ([1]; 12 mg, cycle 1, day 1, 12 mg, read-out: t½ (converted)): 7.4 h | Cmax ([1]; 12 mg, cycle 2, day 1, QDx3dQW 12 mg): 0.113 µg/mL | AUC(0-t) ([1]; 12 mg, cycle 2, day 1, QDx3dQW 12 mg, read-out: AUC0–24h [%CV]): 0.707 µg·h/mL | Tmax ([1]; 12 mg, cycle 2, day 1, QDx3dQW 12 mg, read-out: Tmax, median): 3.7 h | half-life ([1]; 12 mg, cycle 2, day 1, QDx3dQW 12 mg, read-out: t½ (converted)): 4.9 h | Cmax ([1]; 13 mg, cycle 1, day 1, 13 mg): 0.0936 µg/mL | AUC(0-t) ([1]; 13 mg, cycle 1, day 1, 13 mg, read-out: AUC0–24h [%CV]): 0.953 µg·h/mL | Tmax ([1]; 13 mg, cycle 1, day 1, 13 mg, read-out: Tmax, median): 2.1 h | half-life ([1]; 13 mg, cycle 1, day 1, 13 mg, read-out: t½ (converted)): 8.7 h | Cmax ([1]; 15 mg, cycle 1, day 1, 15 mg): 0.0567 µg/mL | AUC(0-t) ([1]; 15 mg, cycle 1, day 1, 15 mg, read-out: AUC0–24h [%CV]): 0.518 µg·h/mL | half-life ([1]; 15 mg, cycle 1, day 1, 15 mg, read-out: t½ (converted)): 9.4 h | Cmax ([1]; 15 mg, cycle 2, day 1, QW 15 mg): 0.0649 µg/mL | AUC(0-t) ([1]; 15 mg, cycle 2, day 1, QW 15 mg, read-out: AUC0–24h [%CV]): 0.604 µg·h/mL | Cmax ([1]; 16 mg, cycle 1, day 1, 16 mg): 0.0667 µg/mL | AUC(0-t) ([1]; 16 mg, cycle 1, day 1, 16 mg, read-out: AUC0–24h [%CV]): 0.689 µg·h/mL | Tmax ([1]; 16 mg, cycle 1, day 1, 16 mg, read-out: Tmax, median): 2.1 h | half-life ([1]; 16 mg, cycle 1, day 1, 16 mg, read-out: t½ (converted)): 7 h | Cmax ([1]; 16 mg, cycle 2, day 1, QDx3dQW 16 mg): 0.0921 µg/mL | AUC(0-t) ([1]; 16 mg, cycle 2, day 1, QDx3dQW 16 mg, read-out: AUC0–24h [%CV]): 0.744 µg·h/mL | Tmax ([1]; 16 mg, cycle 2, day 1, QDx3dQW 16 mg, read-out: Tmax, median): 2.1 h | Cmax ([1]; 20 mg, cycle 1, day 1, 20 mg): 0.154 µg/mL | AUC(0-t) ([1]; 20 mg, cycle 1, day 1, 20 mg, read-out: AUC0–24h [%CV]): 1.26 µg·h/mL | Tmax ([1]; 20 mg, cycle 1, day 1, 20 mg, read-out: Tmax, median): 2.1 h | half-life ([1]; 20 mg, cycle 1, day 1, 20 mg, read-out: t½ (converted)): 6.5 h | Tmax ([1]; 20 mg, cycle 2, day 1, QW 20 mg, read-out: Tmax, median): 4 h | Cmax ([1]; 30 mg, cycle 1, day 1, 30 mg): 0.162 µg/mL | AUC(0-t) ([1]; 30 mg, cycle 1, day 1, 30 mg, read-out: AUC0–24h [%CV]): 1.08 µg·h/mL | half-life ([1]; 30 mg, cycle 1, day 1, 30 mg, read-out: t½ (converted)): 5.9 h | Cmax ([1]; 30 mg, cycle 2, day 1, QW 30 mg): 0.133 µg/mL | AUC(0-t) ([1]; 30 mg, cycle 2, day 1, QW 30 mg, read-out: AUC0–24h [%CV]): 1.12 µg·h/mL | Tmax ([1]; 30 mg, cycle 2, day 1, QW 30 mg, read-out: Tmax, median): 4 h | half-life ([1]; 30 mg, cycle 2, day 1, QW 30 mg, read-out: t½ (converted)): 5.7 h | Cmax ([1]; 40 mg, cycle 1, day 1, 40 mg): 0.172 µg/mL | AUC(0-t) ([1]; 40 mg, cycle 1, day 1, 40 mg, read-out: AUC0–24h [%CV]): 1.64 µg·h/mL | Tmax ([1]; 40 mg, cycle 1, day 1, 40 mg, read-out: Tmax, median): 2.4 h | half-life ([1]; 40 mg, cycle 1, day 1, 40 mg, read-out: t½ (converted)): 7.6 h | Cmax ([1]; 40 mg, cycle 2, day 1, QW 40 mg): 0.232 µg/mL | AUC(0-t) ([1]; 40 mg, cycle 2, day 1, QW 40 mg, read-out: AUC0–24h [%CV]): 2.22 µg·h/mL | half-life ([1]; 40 mg, cycle 2, day 1, QW 40 mg, read-out: t½ (converted)): 6.4 h | Tmax ([1]; range across all doses, read-out: Median Tmax): 1 to 2.8 h | half-life ([1]; range, 2–40 mg dose range, read-out: Mean plasma half-life): 5.9 to 9.4 h | Change in p4EBP1, pS6, pPRAS40 and pNDRG1 in skin [2]: Treatment-related decreases
